Molecules are shown by their SMILES.

Test [1] addresses T1, Gastrin/cholecystokinin type B receptor (Mus musculus, UniProt P56481).
T1 sequence (P56481 whole entry): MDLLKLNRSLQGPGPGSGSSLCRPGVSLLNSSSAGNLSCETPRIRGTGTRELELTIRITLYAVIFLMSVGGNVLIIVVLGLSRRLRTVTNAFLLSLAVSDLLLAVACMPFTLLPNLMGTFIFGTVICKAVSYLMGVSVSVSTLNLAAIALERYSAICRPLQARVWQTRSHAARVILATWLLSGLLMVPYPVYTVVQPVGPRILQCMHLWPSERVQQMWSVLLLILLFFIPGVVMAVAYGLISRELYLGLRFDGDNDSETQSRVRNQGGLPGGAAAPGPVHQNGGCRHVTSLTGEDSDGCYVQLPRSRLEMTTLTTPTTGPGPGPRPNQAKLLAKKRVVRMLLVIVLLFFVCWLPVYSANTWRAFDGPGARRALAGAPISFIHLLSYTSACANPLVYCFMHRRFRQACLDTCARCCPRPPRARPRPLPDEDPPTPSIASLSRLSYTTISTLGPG
The test can be described thus: Evaluated for Cholecystokinin type B receptor antagonistic activity in which 20 pM [125I]BH-CCK-8S was used to label CCKB/gastrin binding sites in mouse cortical homogenates.

Test [2] deals with T2, Gastrin/cholecystokinin type B receptor (Rattus norvegicus) (UniProt P30553).
T2 sequence (whole entry): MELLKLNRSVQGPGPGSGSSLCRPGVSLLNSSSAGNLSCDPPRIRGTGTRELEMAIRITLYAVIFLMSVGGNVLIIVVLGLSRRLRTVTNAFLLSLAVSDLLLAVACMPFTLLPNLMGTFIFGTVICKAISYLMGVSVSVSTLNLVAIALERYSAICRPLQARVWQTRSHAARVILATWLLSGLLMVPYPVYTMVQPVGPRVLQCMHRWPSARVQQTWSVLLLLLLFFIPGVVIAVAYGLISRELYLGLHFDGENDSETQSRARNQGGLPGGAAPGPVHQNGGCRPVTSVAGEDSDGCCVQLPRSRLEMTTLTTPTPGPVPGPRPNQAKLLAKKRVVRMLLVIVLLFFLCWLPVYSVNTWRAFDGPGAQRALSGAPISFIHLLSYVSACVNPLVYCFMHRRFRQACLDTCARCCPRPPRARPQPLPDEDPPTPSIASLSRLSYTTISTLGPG
In words: Evaluated for Cholecystokinin type B receptor antagonistic activity in isolated lumen-perfused immature rat stomach. The class given is functional, tissue-based.

For orientation: IC50 means the concentration that gives 50% inhibition. Low readings indicate greater potency in that assay, high ones weaker potency in that assay. A word on the pKB: it is the KB on a negative log10 scale, so that one unit is a factor of ten. Low values mean a high KB, high ones a low KB. In test [1], `O=C(O)c1cc(NC(=O)C2Cc3ccccc3CCCN2C(=O)c2cc3[nH]cnc3cc2C(=O)NCC23CC4CC(CC(C4)C2)C3)cc(C(=O)O)c1` (stereo not given) gave an IC50 of 224 nM. For the same compound, the negative-log KB (pKB) in test [2] came out at 7.93.
The compound `O=C(O)c1cc(NC(=O)C2Cc3ccccc3CN2C(=O)c2cc3[nH]cnc3cc2C(=O)NCC23CC4CC(CC(C4)C2)C3)cc(C(=O)O)c1` (stereo not given) gave an IC50 in test [1] of 178 nM. This compound showed a negative-log KB (pKB) in test [2] of 7.64.
The compound `O=C(O)c1cc(NC(=O)C2Cc3ccccc3CCN2C(=O)c2cc3[nH]cnc3cc2C(=O)NCC23CC4CC(CC(C4)C2)C3)cc(C(=O)O)c1` (stereo not given) had an IC50 in test [1] of 234 nM. The same compound showed a pKB in test [2] of 7.66.
As for `O=C(O)c1cc(NC(=O)[C@H](Cc2ccccc2)NC(=O)c2cc3[nH]cnc3cc2C(=O)NCC23CC4CC(CC(C4)C2)C3)cc(C(=O)O)c1`, the IC50 in test [1] is 5.25 nM. This compound returned a pKB in test [2] of 9.08.
The corresponding values for `O=C(O)c1cc(NC(=O)C2Cc3ccccc3CCCCN2C(=O)c2cc3[nH]cnc3cc2C(=O)NCC23CC4CC(CC(C4)C2)C3)cc(C(=O)O)c1` (stereo not given) are 5.01 nM and 9.13.
